# Source: article PMC11040934, “PI3Kγδ inhibition suppresses key disease features in a rat model of asthma” (Respiratory Research, 2024)
# Experiments:
# asthma patients = conditions: cited from earlier work
# [1] = Rat plasma protein binding, blood to plasma ratio, unbound fraction in whole blood; type: in vitro ADME; conditions: for Rat fub: fraction unbound in 100% whole blood, fup/BP; for fraction unbound: rat
# Procedure: (§1) Next, cells were stained with Fc block (550,273, BD bioscience, 1:100; 20 mins, RT), CD45R-B220-PeCy7 (HIS24) (25–0460-82, eBioscience, 1:100), CD43-PE (W3/13) (202,812, Biolegend, 1:100), HIS48-FITC (11–0570-82, eBioscience, 1:100), CD11b-APC (562,102, BD Bioscience, 1:100). Cells were lysed and fixed with BD FACS lysing solution (349,202, BD Biosciences; 45 mins, RT) before FACS acquisition (BD LSRFortessa™). Data were analysed using FlowJo 9.9 software (TreeStar). FACS gating strategy: lymphocytes (FSC-A vs SSC-A), doublets exclusion (FSC-W vs FSC-H), neutrophil identification B220-, HIS48hi, CD43hi, SSC-Ahi, geom. MFI for CD11b on neutrophils. IC50 values were determined in Graph Pad through a nonlinear fit on log transform data: log inhibitor vs response, variable slope, 4 parameters. Fraction unbound in diluted whole blood is calculated using the following equation: fu^′=DF·fub/1+DF-1·fub where fu’ is the fraction unbound in diluted whole blood; fub is the fraction unbound in undiluted whole blood; DF is the dilution factor. Fraction unbound in 100% whole blood (fub) is calculated as fup/BP, where fup is the experimentally determined fraction unbound in undiluted plasma and BP is the experimentally determined blood to plasma partition ratio of drug Table 1.
# rat PI3Kγ = rat PI3Kγ (Rattus norvegicus, UniProt D3ZFJ0); experiment: PI3K γ assay: CXCL1/CINC-1-stimulated CD11b expression on rat whole blood neutrophils (FACS); type: cell-based; conditions: reference inhibitors, at the relevant concentration
# Procedure: as §1, with “PI3K γ assay: whole blood from male Sprague Dawley rat was collected in heparin coated tubes and pre-treated (1 hr., 37 °C, 5% CO2) with vehicle DMSO or PI3K inhibitors followed by stimulation with Rat CXCL1/CINC-1 (515-CN-050, R&D) at 500 ng/mL (EC80 determined in house; 1 hr., RT). Next,” for “Next,”
# rat PI3Kδ = target: T1, rat PI3Kδ (Rattus norvegicus, UniProt A0A8I5Y949); experiment: PI3K δ assay: anti-IgM-stimulated CD86 expression on rat splenic B cells (FACS); type: cell-based; conditions: reference inhibitors, at the relevant concentration
# T1 sequence (A0A8I5Y949 1-1047): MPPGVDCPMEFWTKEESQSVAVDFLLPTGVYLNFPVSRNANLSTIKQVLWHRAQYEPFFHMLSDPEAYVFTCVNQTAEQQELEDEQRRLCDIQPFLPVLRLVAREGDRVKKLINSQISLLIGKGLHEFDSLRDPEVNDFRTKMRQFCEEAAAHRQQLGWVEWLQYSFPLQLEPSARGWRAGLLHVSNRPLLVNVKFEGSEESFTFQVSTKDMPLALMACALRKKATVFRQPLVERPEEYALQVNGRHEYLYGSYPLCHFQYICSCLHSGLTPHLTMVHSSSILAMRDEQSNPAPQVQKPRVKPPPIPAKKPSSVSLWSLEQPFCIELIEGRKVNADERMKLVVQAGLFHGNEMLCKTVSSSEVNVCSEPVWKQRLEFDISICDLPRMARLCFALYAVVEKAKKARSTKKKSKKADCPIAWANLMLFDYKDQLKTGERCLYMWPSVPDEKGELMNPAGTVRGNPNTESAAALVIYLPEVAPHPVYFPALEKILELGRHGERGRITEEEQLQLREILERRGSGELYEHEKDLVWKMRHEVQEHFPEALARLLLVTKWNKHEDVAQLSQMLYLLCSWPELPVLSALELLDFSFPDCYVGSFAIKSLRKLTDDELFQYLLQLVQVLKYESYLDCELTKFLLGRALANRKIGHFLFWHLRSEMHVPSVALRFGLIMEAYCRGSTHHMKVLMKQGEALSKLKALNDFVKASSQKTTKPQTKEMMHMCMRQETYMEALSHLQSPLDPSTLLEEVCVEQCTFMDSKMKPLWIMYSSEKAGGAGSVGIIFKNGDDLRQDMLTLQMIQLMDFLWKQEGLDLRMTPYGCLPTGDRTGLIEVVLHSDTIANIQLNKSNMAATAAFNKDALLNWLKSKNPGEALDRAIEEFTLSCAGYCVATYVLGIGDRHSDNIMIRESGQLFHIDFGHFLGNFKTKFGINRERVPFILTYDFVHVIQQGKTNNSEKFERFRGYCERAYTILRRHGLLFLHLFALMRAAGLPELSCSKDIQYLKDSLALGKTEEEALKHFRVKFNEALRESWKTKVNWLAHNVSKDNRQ
# Procedure: (§2) PI3K δ assay: single cell suspension was obtained from the spleen of male Sprague Dawley rat; cells were cultured in RPMI containing heat-inactivated 10% FBS, pre-treated (1 hr., 37 °C, 5% CO2) with vehicle DMSO or PI3K inhibitors, followed by stimulation with AffiniPure F(ab’)2 Fragment Goat Anti-Rat IgM, μ chain specific, Jackson Immunoresearch (112–006-075) at 5 μg/mL (EC80 determined in house; 20–22 hrs). Then, cells were washed with FACS buffer (2% FBS, […]) and stained (15 mins, 4 °C) with Fc block (1:100, 550,273, BD bioscience), LIVE/DEAD Fixable Aqua Dead Cell Stain Kit (L34957, Invitrogen, 1:300), CD45R (B220)-PeCy7 (HIS24) (25–0460-82, eBioscience, 1:100), CD3-AF647 (IF4) (201,408, Biolegend, 1:100), CD86-FITC (24F) (200,305, Biolegend, 1:50). Cells were acquired on the Flow Cytometer (BD LSRFortessa™) and analysed using FlowJo 9.9 software (TreeStar). FACS gating strategy: lymphocytes (FSC-A vs SSC-A), doublets exclusion (FSC-W vs FSC-H), live cells (Aqua-530-), B cell identification CD3- B220 + % of positive B cells for CD86. IC50 values were determined in Graph Pad through a nonlinear fit on log transform data: log inhibitor vs response, variable slope, 4 parameters. Fraction unbound in in vitro assay is calculated using the following equation: fu^′=DF·fup/1+DF-1·fup where fu’ is the fraction unbound in assay media; fup is the experimentally determined fraction unbound in undiluted human plasma; DF is the dilution factor (fold difference between protein concentration in human plasma and assay media, using an albumin concentration of 600 μM (40 g/L) for undiluted plasma) Table 2.
# [2] = Human plasma protein binding and unbound fraction in assay media; type: in vitro ADME
# Procedure: as §2
# Chain of rat PI3Kγ (D3ZFJ0 1-1102): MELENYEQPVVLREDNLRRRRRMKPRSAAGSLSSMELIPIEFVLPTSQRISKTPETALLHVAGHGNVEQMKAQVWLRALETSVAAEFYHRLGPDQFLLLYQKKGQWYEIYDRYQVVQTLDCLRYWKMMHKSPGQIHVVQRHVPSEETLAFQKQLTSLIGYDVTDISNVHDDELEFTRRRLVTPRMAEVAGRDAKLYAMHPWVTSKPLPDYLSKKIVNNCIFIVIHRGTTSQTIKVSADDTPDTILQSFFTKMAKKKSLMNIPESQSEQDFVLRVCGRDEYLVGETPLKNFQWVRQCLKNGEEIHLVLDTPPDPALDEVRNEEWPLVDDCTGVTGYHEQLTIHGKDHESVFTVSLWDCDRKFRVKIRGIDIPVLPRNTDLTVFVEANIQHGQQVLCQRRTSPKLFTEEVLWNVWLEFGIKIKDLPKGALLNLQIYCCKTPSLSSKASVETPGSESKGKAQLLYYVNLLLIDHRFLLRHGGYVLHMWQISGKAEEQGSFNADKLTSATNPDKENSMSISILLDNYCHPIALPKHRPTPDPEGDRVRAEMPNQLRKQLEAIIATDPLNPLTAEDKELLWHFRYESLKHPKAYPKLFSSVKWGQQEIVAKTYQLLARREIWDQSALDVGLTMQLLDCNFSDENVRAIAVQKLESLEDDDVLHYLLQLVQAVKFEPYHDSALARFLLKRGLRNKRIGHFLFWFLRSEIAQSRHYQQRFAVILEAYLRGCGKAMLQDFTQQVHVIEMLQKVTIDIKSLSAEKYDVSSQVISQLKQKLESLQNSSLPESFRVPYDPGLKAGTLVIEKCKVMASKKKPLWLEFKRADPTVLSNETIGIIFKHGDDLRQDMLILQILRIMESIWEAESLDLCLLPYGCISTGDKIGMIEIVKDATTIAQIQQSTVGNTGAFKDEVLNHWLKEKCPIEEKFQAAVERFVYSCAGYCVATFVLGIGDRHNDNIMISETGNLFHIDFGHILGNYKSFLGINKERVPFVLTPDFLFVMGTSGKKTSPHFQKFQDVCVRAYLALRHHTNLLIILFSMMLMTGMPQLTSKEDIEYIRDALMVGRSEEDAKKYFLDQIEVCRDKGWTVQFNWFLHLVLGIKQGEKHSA
structure (smiles),measurement,setting,value
C[C@H](Nc1ncnc2nc[nH]c12)c1cc2cccc(Cl)c2c(=O)n1-c1ccccc1 [duvelisib],effect in clinical asthma trials,asthma patients; oral,beneficial effects
CC(C)N1CCN(Cc2cnc(-c3cc(-c4cccc5[nH]ccc45)cc4[nH]ncc34)o2)CC1 [Nemarisilib],asthma symptoms in clinical trials,asthma patients; inhaled,no improvement in asthma symptoms
same,cough propensity in clinical trials,asthma patients; inhaled,increase in cough propensity
CC(=O)Nc1nc(C)c(-c2cc3c(c(S(C)(=O)=O)c2)C(=O)N([C@@H](C)C2CC2)C3)s1 [AZD3458],Rat fub,[1],0.200
same,effect in PI3Kγ assay (CD11b expression),rat PI3Kγ,blocked their respective assay
same,effect in PI3Kδ assay (CD86 expression),rat PI3Kδ,had no impact on the other assay
CC(C)N1CCN(Cc2cnc(-c3cc(-c4cccc5[nH]ccc45)cc4[nH]ncc34)o2)CC1 [GSK2269557],Rat B/P ratio,[1]; blood to plasma partition ratio,0.88
same,Rat fub,[1],0.050
same,fraction unbound,"[1]; diluted whole blood (PI3K γ assay), fraction unbound in diluted whole blood, DF 1.05 (γ assay), read-out: fu’",0.0524
same,fraction unbound,"[1]; plasma, rat plasma, fraction unbound, read-out: Rat ppb (fu, %)",0.044
same,fraction unbound,"[1]; plasma, undiluted rat plasma, fraction, read-out: Rat plasma fu",0.044
same,effect in PI3Kγ assay (CD11b expression),rat PI3Kγ,had no impact on the other assay
same,fraction unbound,"[2]; human plasma, fraction unbound, read-out: Human ppb (fu, %)",0.021
same,fraction unbound,"[2]; human, assay media (PI3K δ assay), fraction unbound in assay media (δ assay, RPMI 10% FBS), read-out: Fu’",0.177
same,effect in PI3Kδ assay (CD86 expression),rat PI3Kδ,blocked their respective assay
